Laboratory results from ChEMBL document CHEMBL1201862, “PubChem BioAssay data set” (2004).
Active and inactive are the calls of the source.

Legend:
[1] = biological target: Voltage-gated inwardly rectifying potassium channel KCNH2 (Homo sapiens, UniProt Q12809); assay: concentration-dependent hERG rescue from blockers – cell-based, thallium flux, dose response (AID 2121); type: ADME
[2] = M. tuberculosis growth inhibition, HTS (AID 449762); type: functional
[3] = biological target: Complement C1s subcomponent (Homo sapiens, UniProt P09871); assay: Complement C1s ELISA. [Related pubchem assays: 538, 787 ]; type: functional
Complement C1s subcomponent, sequence (P09871 16-437 limits assumed): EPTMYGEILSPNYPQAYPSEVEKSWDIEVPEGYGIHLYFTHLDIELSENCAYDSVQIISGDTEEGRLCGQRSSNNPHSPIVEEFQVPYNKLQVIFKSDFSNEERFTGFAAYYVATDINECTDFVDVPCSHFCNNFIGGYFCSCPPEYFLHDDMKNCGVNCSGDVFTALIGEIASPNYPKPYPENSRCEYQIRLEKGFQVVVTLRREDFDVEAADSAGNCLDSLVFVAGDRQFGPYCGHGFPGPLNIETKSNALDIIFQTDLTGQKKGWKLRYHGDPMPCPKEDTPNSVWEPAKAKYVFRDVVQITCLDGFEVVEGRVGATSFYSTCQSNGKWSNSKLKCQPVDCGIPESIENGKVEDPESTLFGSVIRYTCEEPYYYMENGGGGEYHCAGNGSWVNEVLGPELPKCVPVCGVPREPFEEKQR
Complement C1s subcomponent, sequence (P09871 438-688 limits assumed): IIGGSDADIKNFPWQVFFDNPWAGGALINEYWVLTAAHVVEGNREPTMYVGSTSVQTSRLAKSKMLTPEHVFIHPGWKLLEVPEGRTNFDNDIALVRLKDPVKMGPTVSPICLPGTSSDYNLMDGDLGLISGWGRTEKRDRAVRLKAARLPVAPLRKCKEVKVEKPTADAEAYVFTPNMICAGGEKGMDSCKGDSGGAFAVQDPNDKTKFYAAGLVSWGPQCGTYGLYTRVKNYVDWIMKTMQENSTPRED

[4] = system: Jurkat; assay: blockers of NF-kB activation in T cells – Jurkat, luciferase reporter, luminescence, B- and T-cell, dose response (AID 489004); type: functional, cell-based; details: Homo sapiens;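 note: NF-kB luciferase reporter Jurkat cells stimulated with PMA plus ionomycin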
[5] = fluconazole-exposed Candida albicans growth modulators – fluorescence, retest, confirmation (AID 2467); type: functional, cell-based
[6] = biological target: Sphingosine 1-phosphate receptor 2 (Homo sapiens, UniProt O95136); assay: Dose Response Cell Based Assay for Antagonists of the S1P2 Receptor. [Related pubchem assays: 856, 736 ]; type: functional
Sphingosine 1-phosphate receptor 2, sequence (O95136 whole entry): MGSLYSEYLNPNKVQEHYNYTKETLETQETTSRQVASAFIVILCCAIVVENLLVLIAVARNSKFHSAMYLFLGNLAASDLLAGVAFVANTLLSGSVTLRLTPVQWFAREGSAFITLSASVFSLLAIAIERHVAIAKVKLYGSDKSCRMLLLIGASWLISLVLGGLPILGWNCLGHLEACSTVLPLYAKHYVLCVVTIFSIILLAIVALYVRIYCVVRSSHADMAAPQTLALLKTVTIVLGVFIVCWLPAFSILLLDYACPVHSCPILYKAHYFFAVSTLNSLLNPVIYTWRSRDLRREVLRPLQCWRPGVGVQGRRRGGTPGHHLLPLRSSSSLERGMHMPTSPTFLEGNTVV

[7] = NIH-3T3 fibroblast cytotoxicity, dose response, cytotoxicity control, cell-based, fluorescence, Alamar Blue, secondary assay (AID 2327); type: functional;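 note: NIH-3T3 mouse fibroblasts cultured with fluconazole at 8 µg/mL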
[8] = biological target: T1, Protein skinhead-1 (Caenorhabditis elegans, UniProt P34707); type: functional
T1 sequence (P34707 whole entry): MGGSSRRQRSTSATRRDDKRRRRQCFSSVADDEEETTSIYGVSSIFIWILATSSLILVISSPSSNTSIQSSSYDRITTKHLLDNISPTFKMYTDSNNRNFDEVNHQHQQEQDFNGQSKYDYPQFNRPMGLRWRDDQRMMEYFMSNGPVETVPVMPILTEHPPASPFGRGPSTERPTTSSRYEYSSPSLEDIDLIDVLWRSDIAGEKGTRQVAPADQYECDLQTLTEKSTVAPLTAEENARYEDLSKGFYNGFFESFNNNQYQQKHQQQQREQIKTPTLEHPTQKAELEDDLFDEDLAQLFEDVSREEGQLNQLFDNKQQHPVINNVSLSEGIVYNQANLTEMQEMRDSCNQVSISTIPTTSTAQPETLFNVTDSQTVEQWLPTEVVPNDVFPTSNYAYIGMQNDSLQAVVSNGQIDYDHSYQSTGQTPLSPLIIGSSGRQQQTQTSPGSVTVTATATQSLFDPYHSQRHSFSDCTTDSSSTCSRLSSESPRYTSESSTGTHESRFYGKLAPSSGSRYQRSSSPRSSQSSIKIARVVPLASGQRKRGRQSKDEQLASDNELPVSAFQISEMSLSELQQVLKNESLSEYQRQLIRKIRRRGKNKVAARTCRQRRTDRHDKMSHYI

[9] = system: INS1; assay: INS-1E survival protection against cytokine death – cell-based, luminescence, retest, dose response (AID 449756); type: functional; details: Rattus norvegicus;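 note: cell death triggered by IL-1 beta plus TNF-alpha plus IFN-gamma mixture; protective hits raise ATP signal compared with cytokine alone wells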
[10] = viability loss in Vero cells – cytotoxicity control for Vif-APOBEC3G degradation inhibitor project, dose response (AID 1117358); type: functional; details: Vero
[11] = HEK-293T viability loss, compound-treated – cell-based, uHTS hits, cytotoxicity control for B/T-cell NF-kB inhibitor project, dose response (AID 489019); type: functional;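 note: IC50 reflects cytotoxicity as loss of cell viability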
[12] = biological target: T2, Streptokinase A (Streptococcus pyogenes serotype M1, UniProt P10520); assay: viability-normalized secreted streptokinase activity reduction – plasminogen activation absorbance, OD405, dose response (AID 1914); type: functional, Streptococcus pyogenes M1 GAS;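 note: secreted streptokinase activity via plasminogen activation per viability signal from cell pellet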
T2 sequence (P10520 whole entry): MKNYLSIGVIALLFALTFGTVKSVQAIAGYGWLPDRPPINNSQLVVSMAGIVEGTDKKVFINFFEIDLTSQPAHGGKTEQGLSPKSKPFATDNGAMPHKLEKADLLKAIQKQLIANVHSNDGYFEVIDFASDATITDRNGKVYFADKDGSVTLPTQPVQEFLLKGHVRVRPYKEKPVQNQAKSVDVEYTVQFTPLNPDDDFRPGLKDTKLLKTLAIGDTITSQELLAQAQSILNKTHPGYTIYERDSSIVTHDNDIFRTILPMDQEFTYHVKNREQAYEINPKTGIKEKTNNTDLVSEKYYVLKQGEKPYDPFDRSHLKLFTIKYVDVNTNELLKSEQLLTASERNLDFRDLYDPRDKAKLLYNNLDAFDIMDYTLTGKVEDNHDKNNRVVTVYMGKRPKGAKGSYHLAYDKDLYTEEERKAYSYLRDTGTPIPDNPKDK

[13] = biological target: Heat shock protein HSP 90-alpha (Homo sapiens, UniProt P07900); type: functional, organism-based
[14] = biological target: 14-3-3 protein gamma (Homo sapiens, UniProt P61981); assay: modulators of 14-3-3 gamma client binding – dose response (AID 711); type: functional
14-3-3 protein gamma, sequence (P61981 whole entry, the tested form may be a part): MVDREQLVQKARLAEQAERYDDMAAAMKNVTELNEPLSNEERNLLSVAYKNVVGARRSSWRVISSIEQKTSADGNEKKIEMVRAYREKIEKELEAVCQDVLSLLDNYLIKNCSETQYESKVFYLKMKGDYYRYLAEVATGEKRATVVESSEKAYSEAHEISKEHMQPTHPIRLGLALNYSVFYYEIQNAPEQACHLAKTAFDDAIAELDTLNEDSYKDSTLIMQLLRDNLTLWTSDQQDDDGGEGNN

[15] = biological target: T3, RNA-binding protein pos-1 (Caenorhabditis elegans, UniProt G5EF15); assay: disruptors of C. elegans POS-1 RNA interaction – biochemical, fluorescence polarization, dose response (AID 1964);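 note: purified POS-1 fused to maltose binding protein made in E. coli; potency of compounds blocking POS-1 binding to fluorescent RNA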
T3 sequence (G5EF15 whole entry): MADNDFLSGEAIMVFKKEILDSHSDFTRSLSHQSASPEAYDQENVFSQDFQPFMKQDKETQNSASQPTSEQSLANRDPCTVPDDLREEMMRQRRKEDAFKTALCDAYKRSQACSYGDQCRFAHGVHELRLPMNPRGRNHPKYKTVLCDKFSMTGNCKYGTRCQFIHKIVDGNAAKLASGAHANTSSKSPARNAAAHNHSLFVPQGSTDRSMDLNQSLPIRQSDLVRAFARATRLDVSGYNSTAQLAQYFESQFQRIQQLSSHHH

[16] = biological target: T4, Zinc finger protein mex-5 (Caenorhabditis elegans, UniProt Q9XUB2); assay: potency of MEX-5 RNA-binding blockers – biochemical, C. elegans, fluorescence polarization, dose response (AID 1960)
T4 sequence (Q9XUB2 whole entry): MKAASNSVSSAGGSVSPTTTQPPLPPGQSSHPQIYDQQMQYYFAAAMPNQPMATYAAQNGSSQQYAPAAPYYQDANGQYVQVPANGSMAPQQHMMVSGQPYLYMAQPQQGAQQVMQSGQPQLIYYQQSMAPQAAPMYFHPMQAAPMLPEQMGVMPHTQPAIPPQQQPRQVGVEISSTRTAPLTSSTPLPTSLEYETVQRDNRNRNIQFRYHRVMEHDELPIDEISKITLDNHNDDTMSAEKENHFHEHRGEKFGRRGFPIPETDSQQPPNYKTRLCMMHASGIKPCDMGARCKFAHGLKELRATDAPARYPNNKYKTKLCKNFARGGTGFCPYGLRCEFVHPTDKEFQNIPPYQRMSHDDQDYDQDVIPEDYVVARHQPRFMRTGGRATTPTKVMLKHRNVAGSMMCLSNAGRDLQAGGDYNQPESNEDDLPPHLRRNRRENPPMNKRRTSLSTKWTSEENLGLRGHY

[17] = system: Streptococcus sp. 'group A'; assay: Streptococcus pyogenes SK(-)GAS viability under kanamycin – luminescence, BacTiterGlo, confirmation, counter-screen for streptokinase expression inhibitor project, dose response (AID 1900); type: functional, organism-based
[18] = system: Streptococcus; assay: GAS UMAA2166 growth inhibition – luminescence, BacTiterGlo, counter-screen for streptokinase expression inhibitor project, dose response (AID 1915); type: functional, organism-based;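 note: potency for reduction of bacterial viability or growth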
[19] = biological target: T5, Replicative DNA helicase DnaB (Mycobacterium tuberculosis, UniProt P9WMR3); assay: DnaB intein splicing inhibitors, dose response, biochemical, cell-free fluorescence (AID 449749); type: functional
T5 sequence (P9WMR3 whole entry): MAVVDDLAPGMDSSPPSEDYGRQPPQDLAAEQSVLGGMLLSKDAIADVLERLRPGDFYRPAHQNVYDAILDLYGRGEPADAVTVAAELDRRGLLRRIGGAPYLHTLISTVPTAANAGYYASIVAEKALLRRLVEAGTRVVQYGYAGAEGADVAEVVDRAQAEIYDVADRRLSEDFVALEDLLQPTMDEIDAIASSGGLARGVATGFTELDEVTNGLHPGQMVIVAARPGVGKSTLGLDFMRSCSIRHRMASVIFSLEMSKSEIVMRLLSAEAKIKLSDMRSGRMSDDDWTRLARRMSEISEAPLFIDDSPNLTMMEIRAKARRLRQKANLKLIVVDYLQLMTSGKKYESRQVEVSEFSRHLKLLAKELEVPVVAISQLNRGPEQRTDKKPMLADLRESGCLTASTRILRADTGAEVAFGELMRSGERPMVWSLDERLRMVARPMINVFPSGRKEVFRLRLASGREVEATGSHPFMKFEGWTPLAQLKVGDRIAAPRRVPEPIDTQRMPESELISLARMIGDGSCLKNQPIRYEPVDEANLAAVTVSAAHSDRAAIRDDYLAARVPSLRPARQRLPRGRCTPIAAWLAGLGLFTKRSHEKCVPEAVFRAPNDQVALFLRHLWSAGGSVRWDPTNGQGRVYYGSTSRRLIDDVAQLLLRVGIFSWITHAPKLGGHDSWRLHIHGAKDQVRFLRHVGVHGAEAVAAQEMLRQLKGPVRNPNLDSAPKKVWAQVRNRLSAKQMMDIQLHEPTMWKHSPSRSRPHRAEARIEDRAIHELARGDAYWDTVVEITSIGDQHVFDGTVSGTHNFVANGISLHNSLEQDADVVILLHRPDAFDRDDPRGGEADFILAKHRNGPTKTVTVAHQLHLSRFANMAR

[20] = biological target: T6, Protein RecA (Mycobacterium tuberculosis, UniProt P9WHJ3); assay: Fluorescence Cell-Free Homogeneous Dose Retest to Identify Inhibitors of RecA-Intein Splicing Activity. [Related pubchem assays (depositor defined):AID2097, AID2223, AID489010, AID492950]; type: functional
T6 sequence (P9WHJ3 whole entry): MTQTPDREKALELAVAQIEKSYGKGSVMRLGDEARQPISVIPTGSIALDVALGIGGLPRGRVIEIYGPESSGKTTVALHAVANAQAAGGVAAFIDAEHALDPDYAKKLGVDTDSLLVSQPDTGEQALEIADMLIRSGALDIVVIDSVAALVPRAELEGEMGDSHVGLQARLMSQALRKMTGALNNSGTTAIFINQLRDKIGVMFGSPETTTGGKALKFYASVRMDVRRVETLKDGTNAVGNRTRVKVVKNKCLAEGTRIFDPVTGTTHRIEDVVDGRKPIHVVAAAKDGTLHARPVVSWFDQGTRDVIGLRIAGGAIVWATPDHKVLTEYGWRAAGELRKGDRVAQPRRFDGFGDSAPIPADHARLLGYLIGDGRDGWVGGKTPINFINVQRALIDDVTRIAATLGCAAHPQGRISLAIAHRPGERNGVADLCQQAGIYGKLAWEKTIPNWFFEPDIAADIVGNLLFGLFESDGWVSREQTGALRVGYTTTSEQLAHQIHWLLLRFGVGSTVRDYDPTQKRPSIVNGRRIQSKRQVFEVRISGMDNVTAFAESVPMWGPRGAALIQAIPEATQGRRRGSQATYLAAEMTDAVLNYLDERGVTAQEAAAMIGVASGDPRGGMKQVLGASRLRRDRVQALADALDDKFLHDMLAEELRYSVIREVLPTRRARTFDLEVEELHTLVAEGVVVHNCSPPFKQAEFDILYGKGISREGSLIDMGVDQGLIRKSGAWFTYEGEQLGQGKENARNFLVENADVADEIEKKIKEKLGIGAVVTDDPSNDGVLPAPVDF

[21] = biological target: Serine/threonine-protein phosphatase (Homo sapiens, UniProt Q9BPW0); assay: inhibition of protein phosphatase 5 activity – biochemical, fluorescence, dose response (AID 2395)
Serine/threonine-protein phosphatase, sequence (Q9BPW0 whole entry): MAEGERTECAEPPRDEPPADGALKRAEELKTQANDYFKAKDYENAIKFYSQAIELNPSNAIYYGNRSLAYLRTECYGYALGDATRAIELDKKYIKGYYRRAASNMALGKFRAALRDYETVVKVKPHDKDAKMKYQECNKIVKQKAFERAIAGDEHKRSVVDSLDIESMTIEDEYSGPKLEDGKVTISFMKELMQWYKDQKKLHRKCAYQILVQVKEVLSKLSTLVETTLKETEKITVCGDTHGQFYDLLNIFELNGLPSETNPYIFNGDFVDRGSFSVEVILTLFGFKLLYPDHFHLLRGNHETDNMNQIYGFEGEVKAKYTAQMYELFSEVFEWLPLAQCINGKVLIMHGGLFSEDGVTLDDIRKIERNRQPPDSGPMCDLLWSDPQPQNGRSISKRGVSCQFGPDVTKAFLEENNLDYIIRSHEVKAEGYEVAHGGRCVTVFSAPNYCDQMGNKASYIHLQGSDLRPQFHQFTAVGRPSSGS

[22] = biological target: T7, Caspase-6 (Homo sapiens, UniProt P55212); assay: inhibition of CASP6 peptide cleavage – biochemical, VEID-R110 fluorescence, cherry-pick, dose response (AID 720632)
T7 sequence (P55212 whole entry): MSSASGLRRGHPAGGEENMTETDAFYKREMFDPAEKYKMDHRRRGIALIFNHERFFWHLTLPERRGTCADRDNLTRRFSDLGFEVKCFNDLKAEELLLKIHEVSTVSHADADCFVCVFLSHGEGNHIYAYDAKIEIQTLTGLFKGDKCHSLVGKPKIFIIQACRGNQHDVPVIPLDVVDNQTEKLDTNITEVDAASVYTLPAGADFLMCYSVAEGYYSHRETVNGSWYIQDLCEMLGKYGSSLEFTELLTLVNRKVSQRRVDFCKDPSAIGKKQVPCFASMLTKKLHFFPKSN

[23] = biological target: T8, Tyrosyl-DNA phosphodiesterase 2 (Homo sapiens, UniProt O95551); assay: potency against TDP2 phosphodiesterase activity – biochemical, epi absorbance, IC50, dose response (AID 743297)
T8 sequence (O95551 whole entry): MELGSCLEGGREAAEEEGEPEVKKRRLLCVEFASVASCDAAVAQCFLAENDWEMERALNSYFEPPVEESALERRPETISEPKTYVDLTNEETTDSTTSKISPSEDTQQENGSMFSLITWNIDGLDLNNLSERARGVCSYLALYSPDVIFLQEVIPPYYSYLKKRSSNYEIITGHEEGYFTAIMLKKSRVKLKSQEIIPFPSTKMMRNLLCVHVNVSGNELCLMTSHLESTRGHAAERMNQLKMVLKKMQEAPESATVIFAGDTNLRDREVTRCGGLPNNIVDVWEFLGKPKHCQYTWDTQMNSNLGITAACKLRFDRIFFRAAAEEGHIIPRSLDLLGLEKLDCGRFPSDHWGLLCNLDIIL

[24] = biological target: Serine/threonine-protein phosphatase PP1-alpha catalytic subunit (Homo sapiens, UniProt P62136); assay: inhibition of protein phosphatase 1 activity – biochemical, fluorescence, dose response (AID 2394)
Serine/threonine-protein phosphatase PP1-alpha catalytic subunit, sequence (P62136 whole entry): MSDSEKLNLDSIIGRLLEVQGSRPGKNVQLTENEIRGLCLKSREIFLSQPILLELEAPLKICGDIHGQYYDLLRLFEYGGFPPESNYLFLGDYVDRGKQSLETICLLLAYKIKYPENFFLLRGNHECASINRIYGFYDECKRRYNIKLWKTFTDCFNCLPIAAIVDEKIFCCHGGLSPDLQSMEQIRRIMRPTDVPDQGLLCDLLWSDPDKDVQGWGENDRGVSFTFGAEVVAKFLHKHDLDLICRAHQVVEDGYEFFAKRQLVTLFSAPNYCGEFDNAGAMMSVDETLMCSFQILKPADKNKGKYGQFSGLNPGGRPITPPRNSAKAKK

Voltage-gated inwardly rectifying potassium channel KCNH2, sequence (Q12809 whole entry): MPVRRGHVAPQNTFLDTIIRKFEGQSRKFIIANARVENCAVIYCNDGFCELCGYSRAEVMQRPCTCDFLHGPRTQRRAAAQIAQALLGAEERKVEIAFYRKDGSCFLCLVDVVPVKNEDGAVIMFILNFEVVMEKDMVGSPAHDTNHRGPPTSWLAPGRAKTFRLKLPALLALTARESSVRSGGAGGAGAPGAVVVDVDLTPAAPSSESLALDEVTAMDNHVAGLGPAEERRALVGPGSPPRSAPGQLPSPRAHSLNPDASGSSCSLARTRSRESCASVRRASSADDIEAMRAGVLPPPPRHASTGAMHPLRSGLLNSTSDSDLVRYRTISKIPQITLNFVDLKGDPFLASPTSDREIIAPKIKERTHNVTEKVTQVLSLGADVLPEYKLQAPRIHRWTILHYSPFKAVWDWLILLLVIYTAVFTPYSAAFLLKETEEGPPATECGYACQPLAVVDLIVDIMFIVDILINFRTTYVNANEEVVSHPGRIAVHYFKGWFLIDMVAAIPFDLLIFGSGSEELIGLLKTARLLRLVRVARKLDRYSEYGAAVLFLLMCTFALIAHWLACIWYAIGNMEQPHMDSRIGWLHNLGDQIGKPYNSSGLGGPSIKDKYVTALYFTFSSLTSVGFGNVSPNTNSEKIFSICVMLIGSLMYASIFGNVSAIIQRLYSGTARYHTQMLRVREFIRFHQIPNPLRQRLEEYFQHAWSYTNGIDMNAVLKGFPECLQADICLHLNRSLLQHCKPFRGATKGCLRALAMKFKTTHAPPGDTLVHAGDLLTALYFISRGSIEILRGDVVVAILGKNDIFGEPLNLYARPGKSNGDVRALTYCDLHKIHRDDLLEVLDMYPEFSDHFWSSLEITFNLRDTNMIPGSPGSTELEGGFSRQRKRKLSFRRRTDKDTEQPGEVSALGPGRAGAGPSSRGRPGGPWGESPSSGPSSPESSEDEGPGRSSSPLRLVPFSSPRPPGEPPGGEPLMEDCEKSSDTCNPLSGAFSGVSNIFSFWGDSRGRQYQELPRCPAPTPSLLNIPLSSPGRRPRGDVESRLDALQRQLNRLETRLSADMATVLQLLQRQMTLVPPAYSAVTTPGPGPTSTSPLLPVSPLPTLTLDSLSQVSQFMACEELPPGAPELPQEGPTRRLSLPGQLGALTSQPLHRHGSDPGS

CCN=C(S)N=NC1=C(O)c2cccc3cccc1c23
EC50 [1]: 0.26 µM (active)

Cc1nc2ccc(NC(=O)N(C(C)C)C(C)C)cc2s1
IC50 [2]: > 100 µM (active)

O=c1oc(-c2ccco2)nc2ccccc12
IC50 [3]: > 50 µM (not active)

CCCCCCCCNc1ncnc2ccccc12
IC50 [4]: > 80 µM (inactive) | EC50 [5]: 3.26 µM (active) | IC50 [6]: 1.23 µM (active) | EC50 [7]: > 160 µM (inactive) | IC50 [8]: 33 µM (active) | AC50 [9]: 0.232 µM (active) | CC50 [10]: > 40 µM (active) | IC50 [11]: > 80 µM (inactive)

Nc1nonc1C(=O)NCC/N=C/c1cc(Cc2ccccc2)cc(Br)c1O
EC50 [12]: > 150 µM (not active) | AC50 [13]: 1.24 µM (active) | IC50 [14]: > 50 µM (not active) | EC50 [15]: > 300 µM (not active) | EC50 [16]: > 300 µM (not active) | EC50 [17]: 5.35 µM (active) | EC50 [18]: 9.66 µM (active)

Oc1nc(Nc2ccccc2)cc2cc(Br)ccc12
AC50 [19]: > 120 µM (inactive) | EC50 [20]: 7 µM (active) | IC50 [21]: > 67 µM (not active) | AC50 [22]: 6.04 µM (active) | IC50 [23]: 32.2 µM (inactive) | IC50 [24]: 46.9 µM (not active)
